Results from US20260242353A1, “HETEROARYL DERIVATIVES AS DDRs INHIBITORS” (CHIESI FARMACEUTICI S.P.A., priority 2022, published 2026).

What was measured:
DDR1 = molecular target: T1, DDR1 (Homo sapiens, UniProt Q08345); experiment: LanthaScreen Europium Kinase Binding assay, DDR1; details: 5 nM DDR1, 20 nM Kinase Tracer 178, 1 h at rt; Ki from IC50 by Cheng-Prusoff; read-out: Ki DDR1
T1 construct: purchased Carna Biosciences
Protocol: (§1) DDR1 and DDR2 binding assays were performed using Life Technologies LanthaScreen™ Europium Kinase Binding assay. The compounds were incubated with 5 nM DDR1 (Carna Biosciences) or 5 nM DDR2 (Life Technologies) for 1 h at rt in white 384-well OptiPlate (PerkinElmer), containing 20 nM or 10 nM Kinase Tracer 178 respectively and 2 nM Europium labelled anti-GST antibody (Life Technologies) in assay buffer (50 mM HEPES pH 7.5, 10 mM MgCI2, 1 mM EGTA and 0.01% BRIJ35). The ratio of fluorescence emission 665 nm/615 nm after excitation at 340 nm was obtained using the Tecan Spark 20M plate reader. IC50 values were determined in GraphPad Prism 7.0 software, using 4 parameter model: log(inhibitor) vs. response. IC50 values were converted in Ki using the Cheng-Prusoff equation (Ki=IC50/(1+[Tracer]/Kd).

DDR2 = molecular target: T2, DDR2 (Homo sapiens, UniProt Q16832); experiment: LanthaScreen Europium Kinase Binding assay, DDR2; details: 5 nM DDR2, 10 nM Kinase Tracer 178, 1 h at rt; Ki from IC50 by Cheng-Prusoff; read-out: Ki DDR2
T2 construct: purchased Life Technologies
T2 sequence (Q16832 22-855): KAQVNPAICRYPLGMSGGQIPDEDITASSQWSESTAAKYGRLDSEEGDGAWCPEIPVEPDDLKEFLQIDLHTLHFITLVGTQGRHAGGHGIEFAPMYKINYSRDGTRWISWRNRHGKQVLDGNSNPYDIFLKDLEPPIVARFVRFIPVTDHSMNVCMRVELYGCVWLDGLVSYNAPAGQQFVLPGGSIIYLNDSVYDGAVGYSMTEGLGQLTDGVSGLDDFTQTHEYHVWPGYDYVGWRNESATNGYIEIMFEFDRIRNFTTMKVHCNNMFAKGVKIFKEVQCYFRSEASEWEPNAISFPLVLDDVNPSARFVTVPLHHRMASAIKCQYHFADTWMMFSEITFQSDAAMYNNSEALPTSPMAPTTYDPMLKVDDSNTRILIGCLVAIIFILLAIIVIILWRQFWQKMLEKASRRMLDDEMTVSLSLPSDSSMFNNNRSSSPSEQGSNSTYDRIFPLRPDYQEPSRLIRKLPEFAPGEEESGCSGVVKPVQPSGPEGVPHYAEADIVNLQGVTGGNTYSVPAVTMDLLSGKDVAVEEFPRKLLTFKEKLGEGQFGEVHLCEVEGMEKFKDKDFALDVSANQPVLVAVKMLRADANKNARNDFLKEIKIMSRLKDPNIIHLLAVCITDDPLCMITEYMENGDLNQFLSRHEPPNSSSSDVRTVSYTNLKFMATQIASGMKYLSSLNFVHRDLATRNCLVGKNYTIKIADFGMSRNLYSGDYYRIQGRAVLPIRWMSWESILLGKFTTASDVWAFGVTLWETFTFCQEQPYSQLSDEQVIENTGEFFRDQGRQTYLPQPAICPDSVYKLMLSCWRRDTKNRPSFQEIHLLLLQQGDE
Protocol: as §1

T1 sequence (Q08345 19-913): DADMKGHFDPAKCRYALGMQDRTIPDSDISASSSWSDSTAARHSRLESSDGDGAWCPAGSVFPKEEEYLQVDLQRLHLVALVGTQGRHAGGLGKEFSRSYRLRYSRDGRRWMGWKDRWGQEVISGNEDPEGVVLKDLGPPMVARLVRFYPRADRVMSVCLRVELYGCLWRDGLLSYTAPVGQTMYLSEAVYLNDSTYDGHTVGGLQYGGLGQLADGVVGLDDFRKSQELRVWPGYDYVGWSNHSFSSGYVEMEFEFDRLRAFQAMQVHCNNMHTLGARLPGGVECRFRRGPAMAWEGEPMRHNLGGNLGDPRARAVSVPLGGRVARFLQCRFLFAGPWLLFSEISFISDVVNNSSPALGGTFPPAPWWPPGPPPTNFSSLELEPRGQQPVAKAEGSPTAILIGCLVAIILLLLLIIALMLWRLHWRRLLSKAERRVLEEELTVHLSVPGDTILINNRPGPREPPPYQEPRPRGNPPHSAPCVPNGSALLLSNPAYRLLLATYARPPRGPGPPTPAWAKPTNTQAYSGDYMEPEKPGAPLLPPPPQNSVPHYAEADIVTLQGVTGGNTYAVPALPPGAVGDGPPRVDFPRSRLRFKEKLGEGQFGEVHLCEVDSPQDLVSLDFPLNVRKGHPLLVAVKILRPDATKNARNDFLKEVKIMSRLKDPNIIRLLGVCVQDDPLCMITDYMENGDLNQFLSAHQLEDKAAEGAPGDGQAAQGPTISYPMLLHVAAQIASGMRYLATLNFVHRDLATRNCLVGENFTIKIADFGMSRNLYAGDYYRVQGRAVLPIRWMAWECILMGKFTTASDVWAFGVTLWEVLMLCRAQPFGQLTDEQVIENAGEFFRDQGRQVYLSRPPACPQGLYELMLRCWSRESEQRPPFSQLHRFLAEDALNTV

Ki (DDR1) [nM] | Ki (DDR2) [nM] | Structure (SMILES)
< 5 | < 5 | Cc1ccc(C(=O)Nc2cncc(C(F)(F)F)c2)cc1[C@@H]1CCN(c2cnc3cnccn23)C1 [Example 37, (S)-3-(1-(imidazo[1,2-a]pyrazin-3-yl)pyrrolidin-3-yl)-4-methyl-N-(5-(trifluoromethyl)pyridin-3-yl)benzamide]
< 5 | < 5 | Cc1ccc(C(=O)Nc2cncc(C(F)(F)F)c2)cc1[C@@H]1CCN(c2cncc(C(=O)NC3COC3)c2)C1 [Example 38, (S)-5-(3-(2-methyl-5-((5-(trifluoromethyl)pyridin-3-yl)carbamoyl)phenyl)pyrrolidin-1-yl)-N-(oxetan-3-yl)nicotinamide]
< 5 | < 5 | Cc1ccc(C(=O)Nc2cncc(C(F)(F)F)c2)cc1[C@@H]1CCN(c2cncc(C(=O)N[C@H]3C[C@@H](O)C3)c2)C1 [Example 39, N-((1s,3R)-3-hydroxycyclobutyl)-5-((S)-3-(2-methyl-5-((5-(trifluoromethyl)pyridin-3-yl)carbamoyl)phenyl)pyrrolidin-1-yl)nicotinamide]
< 5 | 5 to 25 | Cc1ccc(C(=O)Nc2cncc(C(F)(F)F)c2)cc1[C@@H]1CCN(c2cncc(C(=O)N3CCN(C)CC3)c2)C1 [Example 40, (S)-4-methyl-3-(1-(5-(4-methylpiperazine-1-carbonyl)pyridin-3-yl)pyrrolidin-3-yl)-N-(5-(trifluoromethyl)pyridin-3-yl)benzamide]
< 5 | 25 to 100 | Cc1ccc(C(=O)Nc2cncc(C(F)(F)F)c2)cc1[C@@H]1CCN(c2cnccc2C(=O)NC2COC2)C1 [Example 41, (S)-3-(3-(2-methyl-5-((5-(trifluoromethyl)pyridin-3-yl)carbamoyl)phenyl)pyrrolidin-1-yl)-N-(oxetan-3-yl)isonicotinamide]
< 5 | < 5 | Cc1ccc(C(=O)Nc2cncc(C(F)(F)F)c2)cc1[C@@H]1CCN(c2cccnc2N)C1 [Example 42, (S)-3-(1-(2-aminopyridin-3-yl)pyrrolidin-3-yl)-4-methyl-N-(5-(trifluoromethyl)pyridin-3-yl)benzamide]
< 5 | < 5 | Cc1ccc(C(=O)Nc2cncc(C(F)(F)F)c2)cc1[C@@H]1CCN(c2cnc3[nH]ncc3c2)C1 [Example 43, 4-methyl-3-[(3S)-1-(1H-pyrazolo[3,4-b]pyridin-5-yl)pyrrolidin-3-yl]-N-[5-(trifluoromethyl)-3-pyridyl]benzamide]
5 to 25 | 25 to 100 | Cc1ccc(C(=O)Nc2cncc(C(F)(F)F)c2)cc1N1CC(Oc2ccc(N)nc2)C1 [Example 44, 3-(3-((6-aminopyridin-3-yl)oxy)azetidin-1-yl)-4-methyl-N-(5-(trifluoromethyl)pyridin-3-yl)benzamide]
< 5 | 5 to 25 | CC(=O)Nc1ccc(OC2CN(c3cc(C(=O)Nc4cncc(C(F)(F)F)c4)ccc3C)C2)cn1 [Example 45, 3-(3-((6-acetamidopyridin-3-yl)oxy)azetidin-1-yl)-4-methyl-N-(5-(trifluoromethyl)pyridin-3-yl)benzamide]
5 to 25 | 25 to 100 | COCC(=O)Nc1ccc(OC2CN(c3cc(C(=O)Nc4cncc(C(F)(F)F)c4)ccc3C)C2)cn1 [Example 46, 3-(3-((6-(2-methoxyacetamido)pyridin-3-yl)oxy)azetidin-1-yl)-4-methyl-N-(5-(trifluoromethyl)pyridin-3-yl)benzamide]
5 to 25 | 5 to 25 | Cc1ccc(C(=O)Nc2cncc(C(F)(F)F)c2)cc1N1CC(Oc2cncc(N)c2)C1 [Example 47, 3-(3-((5-aminopyridin-3-yl)oxy)azetidin-1-yl)-4-methyl-N-(5-(trifluoromethyl)pyridin-3-yl)benzamide]
< 5 | < 5 | Cc1ccc(C(=O)Nc2cc(OC(F)F)ccn2)cc1[C@@H]1CCN(c2cncc(C(N)=O)n2)C1 [Example 51, (S)-6-(3-(5-((4-(difluoromethoxy)pyridin-2-yl)carbamoyl)-2-methylphenyl)pyrrolidin-1-yl)pyrazine-2-carboxamide]
< 5 | 5 to 25 | Cc1ccc(C(=O)Nc2cc(C(C)(C)C)n(C)n2)cc1[C@@H]1CCN(c2ccnc(C(N)=O)c2)C1 [Example 52, (S)-4-(3-(5-((5-(tert-butyl)-1-methyl-1H-pyrazol-3-yl)carbamoyl)-2-methylphenyl)pyrrolidin-1-yl)picolinamide]
< 5 | 5 to 25 | Cc1ccc(C(=O)Nc2cc(CN(C)C)nc(C(F)(F)F)c2)cc1[C@@H]1CCN(c2ccnc(C(N)=O)c2)C1 [Example 53, (S)-4-(3-(5-((2-((dimethylamino)methyl)-6-(trifluoromethyl)pyridin-4-yl)carbamoyl)-2-methylphenyl)pyrrolidin-1-yl)picolinamide]
< 5 | < 5 | Cc1ccc(C(=O)Nc2cncc(C(F)(F)F)c2)cc1[C@@H]1CCN(c2cc(C(N)=O)ncn2)C1 [Example 54, (S)-6-(3-(2-methyl-5-((5-(trifluoromethyl)pyridin-3-yl)carbamoyl)phenyl)pyrrolidin-1-yl)pyrimidine-4-carboxamide]
< 5 | < 5 | Cc1ccc(C(=O)Nc2cc(C(C)(C)C(F)(F)F)on2)cc1[C@@H]1CCN(c2cnccc2C#N)C1 [Example 55, (S)-3-(1-(4-cyanopyridin-3-yl)pyrrolidin-3-yl)-4-methyl-N-(5-(1,1,1-trifluoro-2-methylpropan-2-yl)isoxazol-3-yl)benzamide]
< 5 | < 5 | CCc1cc(NC(=O)c2ccc(C)c([C@@H]3CCN(c4cnccc4C#N)C3)c2)no1 [Example 56, (S)-3-(1-(4-cyanopyridin-3-yl)pyrrolidin-3-yl)-N-(5-ethylisoxazol-3-yl)-4-methylbenzamide]
< 5 | 5 to 25 | Cc1ccc(C(=O)Nc2cc(OC(F)(F)F)ccn2)cc1[C@@H]1CCN(c2ccnc(C(N)=O)c2)C1 [Example 57, (S)-4-(3-(2-methyl-5-((4-(trifluoromethoxy)pyridin-2-yl)carbamoyl)phenyl)pyrrolidin-1-yl)picolinamide]
< 5 | < 5 | Cc1ccc(C(=O)Nc2cc(C(C)(C)C(F)(F)F)on2)cc1[C@@H]1CCN(c2cnccn2)C1 [Example 58, (S)-4-methyl-3-(1-(pyrazin-2-yl)pyrrolidin-3-yl)-N-(5-(1,1,1-trifluoro-2-methylpropan-2-yl)isoxazol-3-yl)benzamide]
< 5 | 5 to 25 | Cc1ccc(C(=O)Nc2cc(C3CC3)nn2C)cc1[C@@H]1CCN(c2cncc(-c3cnn(C)c3)c2)C1 [Example 59, (S)-N-(3-cyclopropyl-1-methyl-1H-pyrazol-5-yl)-4-methyl-3-(1-(5-(1-methyl-1H-pyrazol-4-yl)pyridin-3-yl)pyrrolidin-3-yl)benzamide]
< 5 | < 5 | Cc1ccc(C(=O)Nc2cc(C(C)(C)C(F)(F)F)on2)cc1[C@H]1CCN(c2cncc(-c3cnn(C)c3)c2)C1 [Example 60, (R)-4-methyl-3-(1-(5-(1-methyl-1H-pyrazol-4-yl)pyridin-3-yl)pyrrolidin-3-yl)-N-(5-(1,1,1-trifluoro-2-methylpropan-2-yl)isoxazol-3-yl)benzamide]
